Results: ChEMBL document CHEMBL3046798 (J Agric Food Chem, 2010)
In brackets after ≈: the same amount, converted by molar mass.

Assays:
Meloidogyne incognita [1] = assay: Nematicidal activity against root-knot nematode Meloidogyne incognita J2 (root-knot nematode) infested chickpea plants plots assessed as reduction in nematode population measured 55 days post dose following field application at 1 to 2 kg of active ingredient/hectare; type: functional; parameters: scale not given: the % may be the effect or the level left
[2] = Drug level in Cicer arietinum (chickpea) green seeds measured 100 days post dose following field application at 2 kg of active ingredient/hectare
[3] = Drug level in Cicer arietinum (chickpea) green seeds measured 90 days post dose following field application at 1 kg of active ingredient/hectare
Root [4] = assay: Drug translocation in Solanum lycopersicum (tomato) roots assessed as mean drug level measured post dose following field application at 1 and 2 kg of active ingredient/hectare
[5] = Drug level in Solanum lycopersicum (tomato) green seeds measured 100 days post dose following field application at 1 kg of active ingredient/hectare
[6] = Cmax in Cicer arietinum (chickpea) shoots measured 15 days post dose following field application at 1 and 2 kg of active ingredient/hectare; type: ADME, Shoot; details: other: field application
[7] = Drug level in Solanum lycopersicum (tomato) green seeds measured 120 days post dose following field application at 2 kg of active ingredient/hectare
[8] = Toxicity in Rattus norvegicus (rat); details: in vivo
[9] = Drug level in Solanum lycopersicum (tomato) green seeds measured 120 days post dose following field application at 1 kg of active ingredient/hectare
[10] = Drug level in Cicer arietinum (chickpea) green seeds measured 100 days post dose following field application at 1 kg of active ingredient/hectare
Rotylenchulus reniformis [11] = assay: Nematicidal activity against Rotylenchulus reniformis (reniform nematode) infested tomato plants plots assessed as reduction in nematode population measured 110 days post dose following field application at 1 to 2 kg of active ingredient/hectare; type: functional; parameters: scale not given: the % may be the effect or the level left
[12] = Drug absorption in Solanum lycopersicum (tomato) roots measured 30 days post dose following field application at 1 and 2 kg of active ingredient/hectare
[13] = Drug level in Cicer arietinum (chickpea) green seeds measured 90 days post dose following field application at 2 kg of active ingredient/hectare
[14] = Cmax in Solanum lycopersicum (tomato) shoots measured 30 days post dose following field application at 1 and 2 kg of active ingredient/hectare; type: ADME, Shoot; details: other: field application
Root [15] = assay: Drug absorption in Solanum lycopersicum (tomato) roots assessed as mean drug level measured post dose following field application at 1 and 2 kg of active ingredient/hectare
[16] = Drug level in Solanum lycopersicum (tomato) green seeds measured 90 days post dose following field application at 1 kg of active ingredient/hectare
Meloidogyne incognita [17] = assay: Nematicidal activity against root-knot nematode Meloidogyne incognita J2 (root-knot nematode) infested tomato plants plots assessed as reduction in nematode population measured 110 days post dose following field application at 1 to 2 kg of active ingredient/hectare; type: functional; parameters: scale not given: the % may be the effect or the level left
Meloidogyne incognita [18] = assay: Nematicidal activity against root-knot nematode Meloidogyne incognita J2 (root-knot nematode) infested chickpea plants plots assessed as reduction in nematode population measured 110 days post dose following field application at 1 to 2 kg of active ingredient/hectare; type: functional; parameters: scale not given: the % may be the effect or the level left
Rotylenchulus reniformis [19] = assay: Nematicidal activity against Rotylenchulus reniformis (reniform nematode) infested in tomato plants plots assessed as reduction in nematode population measured 55 days post dose following field application at 1 to 2 kg of active ingredient/hectare; type: functional; parameters: scale not given: the % may be the effect or the level left
[20] = Drug level in Solanum lycopersicum (tomato) green seeds measured 90 days post dose following field application at 2 kg of active ingredient/hectare
Rotylenchulus reniformis [21] = assay: Nematicidal activity against Rotylenchulus reniformis (reniform nematode) infested chickpea plants plots assessed as reduction in nematode population measured 55 days post dose following field application at 1 to 2 kg of active ingredient/hectare; type: functional; parameters: scale not given: the % may be the effect or the level left
Meloidogyne incognita [22] = assay: Nematicidal activity against root-knot nematode Meloidogyne incognita J2 (root-knot nematode) infested tomato plants plots assessed as reduction in nematode population measured 55 days post dose following field application at 1 to 2 kg of active ingredient/hectare; type: functional; parameters: scale not given: the % may be the effect or the level left
Rotylenchulus reniformis [23] = assay: Nematicidal activity against Rotylenchulus reniformis (reniform nematode) infested chickpea plants plots assessed as reduction in nematode population measured 110 days post dose following field application at 1 to 2 kg of active ingredient/hectare; type: functional; parameters: scale not given: the % may be the effect or the level left
[24] = Drug level in Solanum lycopersicum (tomato) green seeds measured 100 days post dose following field application at 2 kg of active ingredient/hectare
in vivo [25] = details: solanum lycopersicum
[26] = Drug level in Cicer arietinum (chickpea) roots measured 15 days post dose following field application at 1 and 2 kg of active ingredient/hectare; type: ADME, Root; details: other: field application, read-out: Drug uptake
[27] = Cmax in Cicer arietinum (chickpea) shoots measured 45 days post dose following field application at 1 and 2 kg of active ingredient/hectare; type: ADME, Shoot; details: other: field application
[28] = Drug level in Cicer arietinum (chickpea) green seeds measured 120 days post dose following field application at 2 kg of active ingredient/hectare
[29] = Drug level in Solanum lycopersicum (tomato) roots measured 15 days post dose following field application at 1 and 2 kg of active ingredient/hectare; type: ADME, Root; details: other: field application, read-out: Drug uptake
[30] = Drug level in Cicer arietinum (chickpea) green seeds measured 120 days post dose following field application at 1 kg of active ingredient/hectare
[31] = Drug absorption in Cicer arietinum (chickpea) roots measured 45 days post dose following field application at 1 and 2 kg of active ingredient/hectare; details: Root
in vivo [32] = details: cicer arietinum, Shoot

Compound | Activity (Meloidogyne incognita [1]) [%] | concentration at 2400 h ([2]; green seeds) [ng/g] | concentration at 2160 h ([3]; green seeds) [ng/g] | Drug transport (Root [4]) [µg/g] | concentration at 2400 h [5] [ng/g] | solubility (physchem; buffer) [µg/mL] | concentration at 2880 h [7] [ng/g] | LD50 [8] [mg/kg] | concentration at 2880 h [9] [ng/g] | concentration at 2400 h ([10]; green seeds) [ng/g] | Activity (Rotylenchulus reniformis [11]) [%] | concentration at 2160 h ([13]; green seeds) [ng/g] | Drug absorption (Root [15]) [µg/g] | concentration at 2160 h ([16]; green seeds) [ng/g] | Activity (Meloidogyne incognita [17]) [%] | Activity (Meloidogyne incognita [18]) [%] | Activity (Rotylenchulus reniformis [19]) [%] | Activity (Rotylenchulus reniformis [21]) [%] | Activity (Meloidogyne incognita [22]) [%] | Activity (Rotylenchulus reniformis [23]) [%] | further results
CCOP(=O)(SC(C)CC)SC(C)CC (stereo unspecified) [CADUSAFOS] | 66 | 5 | 9 | 0.25 | 6 | 248 (≈ 917 µM) | 3 | 37.1 | 2 | 3 | 83 | 16 | 2.18 | 21 | 60 | 79 | 39 | 49 | 57 | 45 | Cmax [6]: 340 ng/g; concentration at 720 h ([12]; roots, other: field application): 3230 ng/g; Cmax [14]: 440 ng/g; concentration at 2160 h ([20]; green seeds): 40 ng/g; concentration at 2400 h [24]: 10 ng/g
CNC(=O)Oc1cccc2c1OC(C)(C)C2 [CARBOFURAN] |  |  |  |  |  | 700 (≈ 3160 µM) |  | 8 |  |  |  |  |  |  |  |  |  |  |  |  | 
CCCCN(CCCC)SN(C)C(=O)Oc1cccc2c1OC(C)(C)C2 [CARBOSULFAN] | 33 |  |  | 9.52 |  |  |  | 209 |  |  | 59 |  | 0.36 |  | 45 | 15 | 23 | 37 | 52 | 23 | Cmax at 1080 h (in vivo [25]; shoots, other: field application): 31600 ng/g; concentration at 360 h [26]: 530 ng/g; Cmax [27]: 24800 ng/g
CCOP(=O)(NC(C)C)Oc1ccc(SC)c(C)c1 (stereo unspecified) [PHENAMIPHOS] |  |  |  |  |  |  |  | 16 |  |  |  |  |  |  |  |  |  |  |  |  | 
CCOP(=S)(OCC)SCSCC [PHORATE] | 44 | 19 | 20 | 0.41 | 10 |  | 4 | 3.2 | 3 | 8 | 45 | 56 | 1.45 | 14 | 17 | 1 | 36 | 28 | 45 | 0.9 | concentration at 360 h [26]: 2310 ng/g; solubility (physchem; water): 50 µg/mL (≈ 192 µM); Cmax [27]: 680 ng/g; concentration at 2880 h [28]: 6 ng/g; concentration at 360 h [29]: 1690 ng/g; concentration at 2880 h [30]: 3 ng/g; concentration at 2160 h ([20]; green seeds): 22 ng/g; concentration at 2400 h [24]: 14 ng/g
CCOP(=S)(OCC)Oc1ncn(-c2ccccc2)n1 [TRIAZOPHOS] | 63 |  |  |  |  | 30 (≈ 95.7 µM) |  | 68 |  |  | 31 |  |  |  | 38 | 44 | 30 | 38 | 55 | 30 | Cmax at 1080 h (in vivo [25]; Shoot): 630 ng/g; concentration at 2400 h [2]: 7 ng/g; concentration at 2160 h [3]: 11 ng/g; Drug transport (Root [4]; Root): 0.14 µg/g; concentration at 2400 h [10]: 4 ng/g; concentration at 720 h ([12]; Root): 7220 ng/g; concentration at 1080 h [31]: 1720 ng/g; concentration at 2160 h [13]: 18 ng/g; Drug absorption (Root [15]; Root): 2.77 µg/g; concentration at 2160 h [16]: 2 ng/g; concentration at 2160 h [20]: 4 ng/g; Cmax at 720 h (in vivo [32]): 250 ng/g
